What is called IC50 is the point on the concentration scale where inhibition reaches its midpoint. Lower therefore signals inhibition by little substance.

The text below walks through data of patent publication US20240018120A1, “MAGL INHIBITORS” (H. LUNDBECK A/S, priority 2020, published 2024).

The test system of series [1] is cryopreserved human hepatocytes. The series is described as follows: In vitro human hepatocyte stability. In kind it is in vitro ADME. The following applies: human hepatocytes 0.5×10^6 cells/mL, 1 μM. As to the method: The metabolic stability of test articles (1 μM) in commercially sourced, pooled donor, cryopreserved human hepatocytes (0.5×10^6 cells/mL) was determined in duplicate. The CLint reactions (250 μL) were initiated by addition of test compound. Aliquots (25 μL) were taken at 0, 15, 30, 45, 60, 90, 120 and 240 minutes and then protein crashed with ice-cold acetonitrile containing internal standard then centrifuged (3220 g for 25 minutes). Supernatant was used for LC-MS/MS analysis. The in vitro half-life (in vitro t½) was determined from the slope value: in vitro t1/2=−0.693/k. Conversion of the in vitro t1/2 (in min) into the scale-up unbound intrinsic clearance (Scaled-up unbound CLint, in mL/min/kg) was done using the following equation (mean of duplicate determinations), with data shown in Table 5: Scaled-up unbound CLint=kV/N×scaling factor. V=incubation volume (0.25 mL); N=number of hepatocytes per well ([…]). Scaling factors for in vivo intrinsic clearance prediction are listed below: […]

The target of series [2] is T1, MAGL (Homo sapiens, UniProt Q99685).
T1 sequence (Q99685 1-303): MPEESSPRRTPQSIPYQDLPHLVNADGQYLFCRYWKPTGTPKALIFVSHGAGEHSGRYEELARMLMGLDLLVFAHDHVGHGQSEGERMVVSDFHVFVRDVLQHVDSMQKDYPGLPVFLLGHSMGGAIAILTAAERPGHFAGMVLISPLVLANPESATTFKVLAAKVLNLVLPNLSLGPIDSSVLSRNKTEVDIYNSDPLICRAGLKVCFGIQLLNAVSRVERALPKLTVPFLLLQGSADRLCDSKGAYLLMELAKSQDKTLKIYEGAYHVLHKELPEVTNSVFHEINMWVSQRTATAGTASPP
As to the kind of experiment: In vitro competitive activity-based protein profiling, PC3 human cell membrane proteomes. In kind it is biochemical. Also noted: endogenous in cells; host or cells: PC3 human cells (membrane proteome). The conditions noted are these: human PC3 membrane proteome; for inhibition at 1 µM: read-out: MAGL % inh. 1 μM (human PC3). A digest of the protocol: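 Competitive ABPP in PC3 membrane proteome (2.0 mg/mL protein): inhibitors preincubated 30 min at 37° C, then JW912-Bodipy probe added for 30 min at room temperature. MAGL band fluorescence after SDS-PAGE normalised to DMSO; IC50 from 4-parameter sigmoidal fit.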

For series [3], the target named is T1, MAGL. The series is described as follows: In vitro competitive substrate hydrolysis enzyme activity assay (pNPA), HEK293 cell lysates. The following applies: HEK293 lysate. Also on record: expressed in transfected cells; host or cells: HEK293. The format is biochemical. As to the method:
HEK293 cell lysates expressing recombinant human MAGL enzyme and 4-nitrophenyl acetate (pNPA) substrate were diluted separately in 50 mM HEPES (pH 7.0) containing 200 mM KCl and 1 mM EDTA. Lysates (50 μL, ˜1.2 μg total protein) were preincubated with varying concentrations of inhibitors at 25° C. After 30 min, 2×pNPA substrate (50 μL, 2.5 mM) was added and the rate of substrate turnover was monitored by measuring the increase in absorbance at wavelength 405 nm for 20 minutes at 25° C. using a Biotek Neo2 plate reader. The mean velocity was converted to percent enzyme activity following background subtraction and normalization to DMSO controls. IC50 values were determined by fitting percent enzyme activities to a non-linear regression, 4-parameter, sigmoidal dose response function in Prism GraphPad.

Turning to `CS(=O)(=O)Nc1ccc(NC(=O)C2CC23CCN(C(=O)OC(C(F)(F)F)C(F)(F)F)CC3)cn1` (single isomer, unassigned) [Example 181, 1,1,1,3,3,3-hexafluoropropan-2-yl (R or S)-1-((6-(methylsulfonamido)pyridin-3-yl)carbamoyl)-6-azaspiro[2.5]octane-6-carboxylate], in series [1], the “Scaled-up unbound CLint” value worked out at 1.94 mL/min/kg. Further, the IC50 in series [2] turned out to be 0.0305 µM.
The corresponding values for `Cn1nccc1NC(=O)C1CC12CCN(C(=O)OC(C(F)(F)F)C(F)(F)F)CC2` (single isomer, unassigned) [Example 135, 1,1,1,3,3,3-hexafluoropropan-2-yl (R or S)-1-((1-methyl-1H-pyrazol-5-yl)carbamoyl)-6-azaspiro[2.5]octane-6-carboxylate] are 16.79 mL/min/kg and 0.015 µM.
The corresponding values for `CC1(NC(=O)C2CC23CCN(C(=O)OC(C(F)(F)F)C(F)(F)F)CC3)CCOCC1` (single isomer, unassigned) [Example 132, 1,1,1,3,3,3-hexafluoropropan-2-yl (R or S)-1-((4-methyltetrahydro-2H-pyran-4-yl)carbamoyl)-6-azaspiro[2.5]octane-6-carboxylate] are 44.18 mL/min/kg and 0.027 µM.
The corresponding values for `O=C(NCc1ccccc1)[C@H]1CC12CCN(C(=O)OC(C(F)(F)F)C(F)(F)F)CC2` (single isomer, unassigned) [Example 150] are 88.79 mL/min/kg and 0.0031 µM.
Take `O=C(Nc1ccncc1)C1CC12CCN(C(=O)OC(C(F)(F)F)C(F)(F)F)CC2` (single isomer, unassigned) [Example 24, 1,1,1,3,3,3-Hexafluoropropan-2-yl (R or S)-1-(pyridin-4-ylcarbamoyl)-6-azaspiro[2.5]octane-6-carboxylate]: the “Scaled-up unbound CLint” value in series [1] is 11.9 mL/min/kg. Moreover, in series [2], the IC50 stood at 0.0024 µM.
For `O=C(NCC1CCOCC1)[C@H]1CC12CCN(C(=O)OC(C(F)(F)F)C(F)(F)F)CC2` (single isomer, unassigned) [Example 117], the “Scaled-up unbound CLint” value in series [1] worked out at 20.55 mL/min/kg. The IC50 in series [2] came out at 0.0047 µM.
The corresponding values for `O=C(Nc1nccs1)C1CC12CCN(C(=O)OC(C(F)(F)F)C(F)(F)F)CC2` (single isomer, unassigned) [Example 138, 1,1,1,3,3,3-hexafluoropropan-2-yl (R or S)-1-(thiazol-2-ylcarbamoyl)-6-azaspiro[2.5]octane-6-carboxylate] are 40.48 mL/min/kg and 0.001 µM.
Consider `O=C(NCc1cccc(C(F)(F)F)n1)C1CC12CCN(C(=O)OC(C(F)(F)F)C(F)(F)F)CC2` (single isomer, unassigned) [Example 76, 1,1,1,3,3,3-hexafluoropropan-2-yl (R or S)-1-(((6-(trifluoromethyl)pyridin-2-yl)methyl)carbamoyl)-6-azaspiro[2.5]octane-6-carboxylate], for which the IC50 is 0.00241 µM in series [3] and 0.0035 µM in series [2].
For the compound `O=C(Nc1ccccn1)C1CC12CCN(C(=O)OC(C(F)(F)F)C(F)(F)F)CC2` (single isomer, unassigned) [Example 48, 1,1,1,3,3,3-hexafluoropropan-2-yl (R or S)-1-(pyridin-2-ylcarbamoyl)-6-azaspiro[2.5]octane-6-carboxylate], the IC50 in series [3] was determined as 0.139 µM. Further, the inhibition at 1 µM in series [2] is 100%.
With `O=C(Nc1ccnc(C(F)(F)F)n1)[C@H]1CC12CCN(C(=O)OC(C(F)(F)F)C(F)(F)F)CC2` (single isomer, unassigned) [Example 17], the IC50 in series [3] is 0.00421 µM. Also, in series [2], the inhibition at 1 µM came out at 100% and the IC50 is 0.001 µM.
Consider `Cn1ccc(NC(=O)C2CC23CCN(C(=O)OC(C(F)(F)F)C(F)(F)F)CC3)n1` (single isomer, unassigned) [Example 127, 1,1,1,3,3,3-hexafluoropropan-2-yl (R or S)-1-((1-methyl-1H-pyrazol-3-yl)carbamoyl)-6-azaspiro[2.5]octane-6-carboxylate], for which the “Scaled-up unbound CLint” value in series [1] was 9.51 mL/min/kg. The IC50 in series [2] was 0.019 µM.
The corresponding values for `CC1(CNC(=O)C2CC23CCN(C(=O)OC(C(F)(F)F)C(F)(F)F)CC3)CCOCC1` (single isomer, unassigned) [Example 168, 1,1,1,3,3,3-hexafluoropropan-2-yl (R or S)-1-(((4-methyltetrahydro-2H-pyran-4-yl)methyl)carbamoyl)-6-azaspiro[2.5]octane-6-carboxylate] are 61.36 mL/min/kg and 0.0074 µM.
`O=C(Nc1cnccn1)C1CC12CCN(C(=O)OC(C(F)(F)F)C(F)(F)F)CC2` (single isomer, unassigned) [Example 54, 1,1,1,3,3,3-hexafluoropropan-2-yl (R or S)-1-(pyrazin-2-ylcarbamoyl)-6-azaspiro[2.5]octane-6-carboxylate] registered an IC50 in series [3] of 0.111 µM. For the same compound, the inhibition at 1 µM in series [2] is 100%.
Take `O=C(Nc1cccnc1C(F)(F)F)C1CC12CCN(C(=O)OC(C(F)(F)F)C(F)(F)F)CC2` (single isomer, unassigned) [Example 85, 1,1,1,3,3,3-hexafluoropropan-2-yl (R or S)-1-((2-(trifluoromethyl)pyridin-3-yl)carbamoyl)-6-azaspiro[2.5]octane-6-carboxylate]: the IC50 in series [3] was 0.167 µM; in series [2] it was 0.099 µM.
In the same order, the values of `O=C(NC(=O)C1CC12CCN(C(=O)OC(C(F)(F)F)C(F)(F)F)CC2)c1ccccc1` (single isomer, unassigned) [Example 94, 1,1,1,3,3,3-hexafluoropropan-2-yl (R or S)-1-(benzoylcarbamoyl)-6-azaspiro[2.5]octane-6-carboxylate] are 0.00323 µM and 0.0051 µM.
`O=C(Nc1cncc(F)c1)C1CC12CCN(C(=O)OC(C(F)(F)F)C(F)(F)F)CC2` (single isomer, unassigned) [Example 39, 1,1,1,3,3,3-hexafluoropropan-2-yl (R or S)-1-((5-fluoropyridin-3-yl)carbamoyl)-6-azaspiro[2.5]octane-6-carboxylate]: the IC50 in series [3] was 0.319 µM. Also, in series [2], the inhibition at 1 µM was found to be 90% and the IC50 stood at 0.29 µM.
In the case of `CN(C(=O)C1CC12CCN(C(=O)OC(C(F)(F)F)C(F)(F)F)CC2)c1cccnc1` (single isomer, unassigned) [Example 42, 1,1,1,3,3,3-hexafluoropropan-2-yl (R or S)-1-(methyl(pyridin-3-yl)carbamoyl)-6-azaspiro[2.5]octane-6-carboxylate], in series [3], the IC50 was 0.243 µM. In addition, the inhibition at 1 µM in series [2] was 100%.
For `O=C(Nc1cncs1)C1CC12CCN(C(=O)OC(C(F)(F)F)C(F)(F)F)CC2` (single isomer, unassigned) [Example 129, 1,1,1,3,3,3-hexafluoropropan-2-yl (R or S)-1-(thiazol-5-ylcarbamoyl)-6-azaspiro[2.5]octane-6-carboxylate], the “Scaled-up unbound CLint” value in series [1] is given as 53.56 mL/min/kg.
As for `O=C(OC(C(F)(F)F)C(F)(F)F)N1CCC2(CC1)CC2C(=O)N1CCc2cnc(C(F)(F)F)nc2C1` (single isomer, unassigned) [Example 58, 1,1,1,3,3,3-hexafluoropropan-2-yl (R or S)-1-(2-(trifluoromethyl)-5,6,7,8-tetrahydropyrido[3,4-d]pyrimidine-7-carbonyl)-6-azaspiro[2.5]octane-6-carboxylate], the IC50 in series [3] was found to be 0.138 µM; in series [2], 0.049 µM.
